# Bridges are numbered along the chain shown (N, C = ends). Where no end group is shown, it is not given here. [ ]: non-standard residue; d: D form. The star is where a group is joined. Pen = CC(C)(S)[C@H](N)C(=O)O; Acm = CC(=O)NC*
# System: adipose tissues from male Zucker fatty (fa/fa) rats
# Test: In vitro inhibition of lipogenesis in isolated adipose tissue
# Format: cell-based, rat
# Settings: for In vitro lipogenesis % of control / In vitro lipogenesis Activity / In vitro lipogenesis, rate of [C14]-glucose incorporation into [C14]-lipid: peptide 0.3 μM, insulin 0.1 mU/ml; for In vitro lipogenesis, rate of [C14]-glucose incorporation into [C14]-lipid: KRB buffer; for activity according to the in vivo and in vitro assay results (in words): structure-activity summary
# Procedure: The rate of the incorporation of exogenous [C^14]-glucose into total lipid in adipose tissue was measured as the index of anti-lipogenic activity of hGH 177-191.
# Adipose tissues were sliced into segments of approximately 200 mg each and then placed in Krebs-Ringer bicarbonate (KRB) buffer (pH 7.4) containing 2% defatted BSA, and glucose (0.1 mg/ml) and gassed with 95% O2-5% CO2 at 37° C. After 1 hr preincubation, the tissues were transferred to another 2 ml of fresh media containing [C^14]-glucose (final specific activity 0.05 μCi/μmol), and 0.3 μM of hGH 177-191 in the presence or absence of insulin (0.1 mU/ml) for a further 90 min incubation (conditions as above). Then the tissues were removed, washed thoroughly with KRB buffer and lipid was extracted with 5 ml of chlorofom/methanol (2:1, v/v) The extraction solution was washed with 2 ml of MeOH-H2O solution containing 0.1% MgCl2. A 2.5 ml aliquot of the washed extraction solution was taken and transferred to scintillation vials. The [C^14] radioactivity was measured with a liquid scintillation counter. The rates of total lipid synthesis were expressed as μmol [C^14]-glucose incorporated into lipid/g tissue/hr.
Substance,In vitro lipogenesis % of control,In vitro lipogenesis Activity,"In vitro lipogenesis, rate of [C14]-glucose incorporation into [C14]-lipid [nmol/g tissue/hr]",activity according to the in vivo and in vitro assay results (in words)
9606 (LKIVQCRSVEGSCGF; disulfide 6-13; listed as Homo sapiens) [Compound 9606],77 % of control,Active,187 ± 19,
9618 (KKLRIVQCRSVEGSCGF; disulfide 8-15; listed as Homo sapiens) [Compound 9618],77 % of control,Active,188 ± 19,
9609 (LRIAQCRSVEGSCGF; disulfide 6-13; listed as Homo sapiens) [Compound 9609],78 % of control,Active,188 ± 13,
9607 (ARIVQCRSVEGSCGF; disulfide 6-13; listed as Homo sapiens) [Compound 9607],82 % of control,Active,198 ± 12,
9402 (LRIVQC(Acm)RSVEGSCGF; not fully specified (residue 13); listed as Homo sapiens) [Compound 9402],91 % of control,Inactive,222 ± 9,
9613 (LRIVQCRSAEGSCGF; disulfide 6-13; listed as Homo sapiens) [Compound 9613],78 % of control,Active,189 ± 16,
9617 (LRIVQCRSVEGSAGF; listed as Homo sapiens) [compound 9617],,,,inactive
9402 (LRIVQC(Acm)RSVEGSCGF; not fully specified (residue 13); listed as Homo sapiens) [compound 9402],,,,inactive
9403 (LRKVQCRSVEGSCGF; disulfide 6-13; listed as Homo sapiens) [Compound 9403],69 % of control,Active,167 ± 28,
9615 (LRIVQCRSVEASCGF; disulfide 6-13; listed as Homo sapiens) [Compound 9615],76 % of control,Active,183 ± 17,
9603 (LAIVQCRSVEGSCGF; listed as Homo sapiens) [Compound 9603],93 % of control,Inactive,225 ± 18,
9401 (LRIVQCRSVEGSCGF; listed as Homo sapiens) [Compound 9401],75 % of control,Active,161 ± 10,
9404 (LRIVQCRSVEGSCGF-NH2; disulfide 6-13; N-terminus assumed; SMILES CC[C@H](C)[C@H](NC(=O)[C@H](CCCNC(=N)N)NC(=O)[C@@H](N)CC(C)C)C(=O)N[C@H](C(=O)N[C@@H](CCC(N)=O)C(=O)N[C@H]1CSSC[C@@H](C(=O)NCC(=O)N[C@@H](Cc2ccccc2)C(N)=O)NC(=O)[C@H](CO)NC(=O)CNC(=O)[C@H](CCC(=O)O)NC(=O)[C@H](C(C)C)NC(=O)[C@H](CO)NC(=O)[C@H](CCCNC(=N)N)NC1=O)C(C)C; listed as Homo sapiens) [Compound 9404],77 % of control,Active,187 ± 18,
9601 (LRIVQCRSVEGSCGA; disulfide 6-13; listed as Homo sapiens) [Compound 9601],76 % of control,Active,185 ± 24,
9405 (Ac-LRIVQCRSVEGSCGF; disulfide 6-13; listed as Homo sapiens) [Compound 9405],68 % of control,Active,164 ± 17,
9606 (LKIVQCRSVEGSCGF; disulfide 6-13; listed as Homo sapiens) [compound 9606],,,,retains activity
9605 (KLRIVQCRSVEGSCGF; disulfide 7-14; listed as Homo sapiens) [Compound 9605],76 % of control,Active,184 ± 41,
9604 (YLRIVQCRSVEGSCGF; disulfide 7-14; listed as Homo sapiens) [Compound 9604],49 % of control,Active,118 ± 16,
9602 (LRIVQCRSVEGSCAF; disulfide 6-13; listed as Homo sapiens) [Compound 9602],73 % of control,Active,176 ± 27,
9608 (LRAVQCRSVEGSCGF; disulfide 6-13; listed as Homo sapiens) [Compound 9608],71 % of control,Active,173 ± 12,
9407 (LRIVQCKSVEGSCGF; disulfide 6-13; listed as Homo sapiens) [Compound 9407],71 % of control,Active,174 ± 16,
9611 (LRIVQARSVEGSCGF; listed as Homo sapiens) [compound 9611],,,,inactive
9502 (LRIVQ[Pen]RSVEGS[Pen]GF; disulfide 6-13; listed as Homo sapiens) [Compound 9502],72 % of control,Active,174 ± 5,
9406 (LRIVQCASVEGSCGF; listed as Homo sapiens) [Compound 9406],97 % of control,Inactive,236 ± 17,
9501 (LRIVQCRSVE[dA]SC[dA]F; disulfide 6-13; listed as Homo sapiens) [compound 9501],,,,activity being retained
9410 (H-LRIVQCRSVEGSCGF; disulfide 6-13; also: desamino N-terminus; listed as Homo sapiens) [Compound 9410],59 % of control,Active,143 ± 20,
9616 (LRIVQCRSVEGACGF; disulfide 6-13; listed as Homo sapiens) [Compound 9616],84 % of control,Active,203 ± 19,
9610 (LRIVACRSVEGSCGF; disulfide 6-13; listed as Homo sapiens) [Compound 9610],79 % of control,Active,192 ± 14,
9611 (LRIVQARSVEGSCGF; listed as Homo sapiens) [Compound 9611],93 % of control,Inactive,224 ± 19,
9617 (LRIVQCRSVEGSAGF; listed as Homo sapiens) [Compound 9617],92 % of control,Inactive,223 ± 16,

# — patent publication US6737407B1, “Treatment of obesity” (Metabolic Pharmaceuticals, Ltd., priority 1997, dated 2004)
